{
  "source": "patent US20060106099A1",
  "about": "“Novel inhibitors of ubiquitin isopeptidases” (priority 2002, published 2006)",
  "key": {"ubiquitin isopeptidases [1]": {"system": "ubiquitin isopeptidases", "assay": "Ubiquitin isopeptidase activity, Ub-PEST substrate, lysates of treated RKO and HCT 116 cells", "type": "cell-based, human", "conditions": "cells treated 6, 20 or 60 μM, 12 h", "experimental": "A) Inhibition of isopeptidase proteolysis of Ub-PEST substrate. RKO and HCT 116 cells were treated with DMSO vehicle, 6, 20, or 60 μM of Δ12-PGJ2, DBA, NSC-302979, or curcumin, 60 μM PGB1, 60 μM NSC-156236, or 60 μM DPTP for 12 h, 37° C. Cell lysates from each treatment were incubated with Ub-PEST, as described in materials and methods. Samples were fractionated by SDS-PAGE and proteins detected with ubiquitin epitopes immunochemically (HCT 116 ^+/+ western blot shown as example of raw data). […] B) Inhibition of isopeptidase activity by test panel compounds. Isopeptidase activity was determined by measuring via densitometry, the amount of Ub generated by isopeptidase cleavage of Ub-PEST. Bar graph patterns are DMSO vehicle (black), Δ12-PGJ2 (hatched), DBA (horizontal lines), NSC-302979 (white), PGB1 (diagonally downward right lines), and NSC-156236 (diagonally downward left lines). The amount of Ub generated in the vehicle treated sample (panel A, lane 2) is arbitrarily designated 100%.\nCellular isopeptidase enzymatic activity was measured with two assays that used different substrates. In one assay ubiquitin-PEST (Ub-PEST) was used, a full-length ubiquitin molecule with an 18 amino acid c-terminal peptide extension (total mass=10.5 kDa). Ubiquitin isopeptidases specifically cleave the 18 amino acid peptide extension, releasing full-length ubiquitin (8.5 kDa).\nBriefly, 6×10^5 cells were incubated with 0-60 μM of test compounds for 12 hrs. Cells were lysed in 50 μL of 25 mM HEPES, 5 mM EDTA, 0.1% CHAPS, 5 mM ATP, pH 7.5. The protein concentration of each sample was adjusted to 0.3 mg/mL and incubated with 50 μg/mL Ub-PEST for 45 minutes at 25° C. Under these conditions, Ub-PEST hydrolysis occurs at a linear rate. 20 μL samples were mixed with 20 μL 2× Laemmli buffer, boiled briefly, and fractionated by SDSPAGE. Isopeptidase activity was monitored by determining the amount of product (8.5 kDa ubiquitin) formation."}, "ubiquitin isopeptidases [2]": {"system": "ubiquitin isopeptidases", "assay": "Ubiquitin isopeptidase activity, z-LRGG-AMC substrate, lysates of treated RKO and HCT 116 cells", "type": "cell-based, human", "conditions": "cells treated 6, 20 or 60 μM, 12 h", "experimental": "RKO (upper) and HCT 116 ^+/+ cells (lower) were treated with DMSO vehicle, 6, 20, or 60 μM of Δ12-PGJ2, DBA, NSC-302979, or curcumin, 60 μM PGB1, 60 μM NSC-156236, or 60 μM DPTP for 12 h at 37° C. Cell lysates (0.5 mg/mL) from each treatment were incubated with the isopeptidase substrate, z-LRGG-AMC, for 3 h, 37° C. The amount of AMC cleaved by isopeptidase was determined fluorometrically, as described in Materials and Methods.\nThe second assay used a fluorescent tetrapeptide, z-LRGG-AMC, as a substrate that mimics the carboxy-terminus of ubiquitin. Isopeptidase activity hydrolyzes the bond between the c-terminal glycine and the fluorophore. This tetrapeptide also undergoes slow proteolysis by the catalytic subunit of the proteasome. To minimize this background rate of proteolysis cell lysates were incubated with 30 μM MG115 for 30 minutes at 4° C., prior to substrate incubation (>90% proteasome inhibition). Cells were teeated as above, lysed in 250 μL of lysis buffer per sample, and adjusted protein concentration to 0.5 mg/mL prior to incubation with MG115. Next, z-LRGG-AMC substrate was added and fluorescence was quantified of the AMC moiety cleaved by isopeptidase action."}, "[3]": {"system": "polyubiquitin conjugates in RKO-E6 cells", "assay": "Accumulation of polyubiquitin in RKO-E6 cells (immunoblot)", "type": "cell-based, human", "conditions": "EC80 or 60 μM, 6-24 h", "experimental": "A) Accumulation of polyubiquitin. RKO-E6 cells were treated with DMSO vehicle for 24 h, 37° C., or with the concentrations of test compounds that gave 80% cell death (as determined by cell viability assay at 48 h) for 6, 12, or 24 h, 37° C. […] Schematic depicting p53 degradation via the proteasome pathway in RKO cells versus RKO-E6 cells. The activity of the HPV E6 oncoprotein hastens p53 degradation in RKO-E6 cells. ii. RKO and RKO-E6 cells were treated with vehicle, etoposide (50 μM), MG115 (20 μM), Δ12-PGJ2 (60 μM), NSC-302979 (20 μM, DBA (20 μM), curcumin (60 μM), PGB1 (60 μM), NSC-156236, (60 XM)or DPTP 60 μM for 6 h, 37° C. Lysates were fractionated by SDS-PAGE and their p53 content determined immunochemically. iii. p53 levels were measured by densitometry and the ratio of p53 protein in RKO-E6 cells/RKO cells calculated.\nThe medium was removed and cells lysed in 50 mM Tris, pH 7.4, 100 mM NaCl, 2 mM EDTA with 0.1% SDS, 0.1% deoxycholate, 1× complete protease inhibitor mixture. Protein concentration was measured by the Bradford method. Equal portions of the total cell lysate were fractionated from each sample (12.5 μg of protein) by SDS-PAGE. Proteins were transferred to poly(vinylidene difluoride) blocked with 5% (w/v) nonfat dry milk in Trisbuffered saline [20 mM Tris-HCl, pH 7.5, 100 mM sodium chloride, 0.1% (v/v) Tween 20]. Proteins were detected immunochemically by using primary antibodies directed against p53 (1:4000) or ubiquitin (1:1000), followed by horseradish peroxidase-conjugated secondary antibodies (1:4000). Antigen-antibody complexes were detected with enhanced chemiluminescence reagents. Gels were scanned and quantified intensities using Kodak 1D Image Analysis Software."}, "p53": {"system": "p53", "assay": "p53 accumulation, ratio RKO-E6 cells/RKO cells (immunoblot, densitometry)", "type": "cell-based, human", "conditions": "6 h; etoposide 50 μM, MG115, NSC-302979, DBA 20 μM, others 60 μM", "method_in_brief": "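RKO-E6 cells exposed at 37° C for 6, 12 or 24 h to compound concentrations giving 80% cell death at 48 h; for p53, RKO and RKO-E6 cells treated 6 h. Lysates (12.5 μg protein) immunoblotted for ubiquitin or p53 with ECL detection; p53 quantified by densitometry as RKO-E6/RKO ratio.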"}, "RKO cells [4]": {"system": "RKO cells", "protocol": "(§1) Cell viability was measured with MTT reagent as described in materials and methods.\n(§2) Cell viability was detected by the MTT assay. Briefly, 1×10^5 cells were incubated per well of a sterile, 96-well assay plate with 0-60 μM of test compounds for 48 hours. MTT reagent was added to each well, final concentration of 0.5 mg/mL, and incubated for an additional 3 hours. The media was aspirated and remaining MTT reagent from each well and added 100 μL of HCl:isopropanol (1:24). The absorbance of each sample was measured at 405 nm."}, "HCT 116 +/+ cells [5]": {"system": "HCT 116 +/+ cells", "protocol": "as §1, §2"}, "isopeptidase": {"system": "isopeptidase", "conditions": "cited from earlier work"}, "RKO cells [6]": {"system": "RKO cells", "assay": "MTT cell viability assay, RKO cells", "conditions": "48 h, MTT, isogenic pair", "protocol": "as §1, §2"}, "HCT 116 +/+ cells [7]": {"system": "HCT 116 +/+ cells", "assay": "MTT cell viability assay, HCT 116 p53 +/+ cells", "conditions": "48 h, MTT, isogenic pair", "protocol": "as §1, §2"}},
  "data": [
    {"molecule": "CCCCC[C@H](O)/C=C/C1=C(CCCCCCC(=O)O)C(=O)CC1", "note": "[PGB1]", "values": [
      {"measurement": "inhibition of isopeptidase cleavage of Ub-PEST", "setting": "ubiquitin isopeptidases [1]", "value": "did not inhibit isopeptidase activity"},
      {"measurement": "inhibition of z-LRGG-AMC hydrolysis by ubiquitin isopeptidases", "setting": "ubiquitin isopeptidases [2]", "value": "did not"},
      {"measurement": "cellular accumulation of polyubiquitin conjugates", "setting": "[3]", "value": "did not cause appreciable cellular accumulation of ubiquitin conjugates"},
      {"measurement": "ratio of p53 protein [RKO-E6 cells/RKO cells]", "setting": "p53", "value": "significantly less than unity"},
      {"measurement": "EC50", "setting": "RKO cells [4]", "value": "> 60", "unit": "µM"},
      {"measurement": "EC50", "setting": "RKO-E6 cells", "value": "> 60", "unit": "µM"},
      {"measurement": "EC50", "setting": "HCT 116 +/+ cells [5]", "value": "> 60", "unit": "µM"},
      {"measurement": "EC50", "setting": "HCT 116 −/− cells", "value": "> 60", "unit": "µM"},
      {"measurement": "isopeptidase inhibition relative to Δ12-PGJ2", "setting": "isopeptidase", "value": "inactive"},
      {"measurement": "cell death in RKO compared with RKO-E6 cells", "setting": "RKO cells [6]", "value": "did not cause significant cell death"},
      {"measurement": "cell death in HCT 116 +/+ compared with HCT 116 −/− cells", "setting": "HCT 116 +/+ cells [7]", "value": "did not cause significant cell death"}
    ]}
  ]
}
